A short description of the experiment: Agonist activity at mu opioid receptor in guinea pig ileum assessed as inhibition of electrically-stimulated muscle contraction.

One may read the IC50 as the concentration at which inhibition is half-maximal. As to `CSCC[C@H](NC(=O)[C@H](Cc1ccccc1)NC(=O)CNC(=O)[C@@H](C)NC(=O)[C@@H](N)Cc1ccc(O)cc1)C(=O)N1CCC[C@H]1C(=O)N[C@@H](CC(C)C)C(=O)N[C@@H](Cc1c[nH]c2ccccc12)C(=O)NCc1cc(C(F)(F)F)cc(C(F)(F)F)c1` [Tyr-D-Ala-Gly-Phe-Met-Pro-Leu-Trp-NH-3,5-Bzl(CF 3) 2], the IC50 worked out at 420 nM.

These data come from BindingDB's records for doi:10.1021/jm100157m (University of Arizona, 2010).
